Assay results taken from patent US6495594B2, “Biologically active analogs of discodermolide” (Harbor Branch Oceanographic Institution, Inc., priority 2000, dated 2002).

Columns and labels:
[1] = see U.S. Pat. No. 6,127,406; cited from earlier work
[2] = system: P388 murine leukemia cell lines; assay: In vitro proliferation of P388 cells (MTT); format: cell-based; settings: 48-h exposure
Protocol: Discodermolide and discodermolide analogs were analyzed as to their effects on proliferation of A549 human adenocarcinoma and P388 murine leukemia cell lines. P388 cells were obtained from Dr. R. Camalier, National Cancer Institute, Bethesda, MD, and A549 cells were obtained from American Type Culture Collection, Rockville, MD. All cell lines were maintained in tissue culture medium (TCM; Roswell Park Memorial Institute RPMI 1640 supplemented with 100 U/mL penicillin, […], 60 […], 18 mM HEPES, 0.05 mg/mL gentamicin (Life Technologies, Gaithersburg, MD) and 10% fetal bovine serum) and cultured in plastic tissue culture flasks at 37° C. in humidified air containing 5% CO2. Stock cultures of P388 cells were subcultured 1:20 in fresh TCM every 2 to 3 days. Stock cultures of A549 cells were subcultured 1:10 every 3 to 4 days. To assess the antiproliferative effects of agents against the cells, 200 μL cultures (96-well tissue culture plates, Nunc, Denmark) were established at 1 ×10^5 cells/mL in TCM or TCM containing the test agent at 0.03-5.0 μg/mL. After 48-h exposures, P388 cells were enumerated using 3-[4,5-dimethylthiazol-2-yl]-2,5-diphenyltetrazolium bromide (MTT) as described in the literature (M. C. Alley, et al., Cancer Res. 48:589, 1988). A549 cells were enumerated in the same manner after 72 hours exposure. The results were expressed as percent inhibition compared to the negative (no drug) control. Positive drug controls of varying dilutions of 5-fluorouracil and adriamycin (Sigma Chemical Co., St Louis, MO) were included to monitor drug sensitivity of the cell line.
To quantitate the effects on cell proliferation and resulting IC50 values, 75 μL of warm growth media containing 5 mg/mL MTT is added to each well, cultures returned to the incubator, and left undisturbed for 3 hours. To spectrophotometrically quantitate formation of reduced formazan, plates are centrifuged (500×g, 10 minutes), culture fluids removed by aspiration, and 200 μL of acidified isopropanol (2 mL concentrated HCl /liter isopropanol) added per well. The absorbance of the resulting solutions is measured in a plate reader (TECAN Spectra SLT; TECAN U.S., Research Triangle Park, N.C.) at 570 nm and a 650 nm reference filter. The absorbance of test wells is divided by the absorbance of drug-free wells, and the concentration of agent that results in 50% of the absorbance of untreated cultures (IC50) is determined by linear regression of logit-transformed data (D. J. Finney, Statistical Method in Biological Assay, third ed., pp. 316-348, Charles Griffin Co., London, 1978). A linear relationship between tumor cell number and formazan production has been routinely observed over the range of cell densities observed in these experiments. The two standard drug controls (indicated above) are included in each assay as a check to monitor the drug sensitivity of each of the cell lines and IC50 values are determined for each drug-cell combination.

A549 human lung cells = assay: Cell cycle progression by flow cytometry; format: cell-based
Protocol: Cell cycle studies were initiated in order to pinpoint a specific phase within the cell cycle in which discodermolide analogs were exerting their antiproliferative effect. A549 human lung cells were used as cell cycle targets to compare the effects of discodermolide and discodermolide analogs on perturbation of the cell cycle. Cell cycle analyses were performed as follows: A549 cells were incubated at 37° C. in 5% CO2 in air in the presence or absence of varying concentrations of discodermolide or discodermolide analogs for 24 hr. Cells were harvested, fixed in ethanol, washed, and stained with 0.02 mg/mL of propidium iodide (P.I.) together with 0.1 mg/mL of RNAse A. Stained preparations were analyzed on a Coulter EPICS ELITE flow cytometer with 488 nm excitation. Fluorescence measurements and resulting DNA histograms were collected from at least 10,000 P.I. stained cells at an emission wavelength of 690 nm. Raw histogram data was further analyzed using a cell cycle analysis program (Multicycle, Phoenix Flow Systems).

[3] = system: A549 human adenocarcinoma tumor cells; assay: Microtubule bundling patterns in tumor cells by immunofluorescence; format: cell-based; parameters: key to Microtubule bundling in A549 cells: −: no effect; +/−: minimal or questionable effect; +: weak effect; ++: strong effect; +++: very strong effect equivalent to discodermolide
Protocol: Discodermolide and discodermolide analogs were evaluated as to their effects on the morphology of the microtubule network of cells using mouse anti-alpha-tubulin monoclonal antibody.
On day one, 7×10^4 adherent A549 human adenocarcinoma tumor cells were cultured in TCM overnight at 37° C. in 5% CO2 on 22 mm^2 cover slips in 6-well microtiter plates. On day two, TCM was removed and replaced with 10-1000 nM discodermolide or analog in TCM or TCM without drug (control) and incubated overnight at 37° C. in 5% CO2. On day three, TCM was removed and cells attached to cover slips were fixed with a 3.7% formaldehyde solution in Dulbecco's PBS for 10 minutes at room temperature. Cells were permeabilized with a 2% Triton X-100 solution, 2 mL per well, for 5 minutes at room temperature and washed twice in Dulbecco's PBS prior to staining.
To each well containing cells attached to cover slips a 2 mL volume of mouse anti- alpha-tubulin monoclonal antibody (Cat# T-5168, Sigma Chemical Co., St. Louis, Mo.) diluted 1:1000 in Dulbecco's phosphate buffered saline (D-PBS) was added and the cells incubated at room temperature for 45 minutes. Cover slips were rinsed once with D-PBS. A 2 mL volume of goat-anti-mouse-IgG-FITC conjugated antibody (Cat# T-5262, Sigma Chemical Co., St. Louis, Mo.) diluted 1:1000 in D-PBS was added and the cells incubated at room temperature for 45 minutes. Cover slips were rinsed once in D-PBS and DNA was stained with 0.02 mg/mL propidium iodide together with 0.1 mg/mL of ribonuclease A (RNAse) A in D-PBS at 37° C. for 30 minutes. Cover slips were rinsed three times with sterile distilled water, air-dried and mounted on slides with SlowFade™ antifade solution (Molecular Probes, Eugene, Oreg.) and observed under the microscope using epifluorescence illumination for the presence of abnormal aster and microtubule bundle formations.

Structure (SMILES) | Cytotoxicity compared to the parent molecule [1] | other results
C=CC=CC(C)C(OC(N)=O)C(C)C(O)C(C)CC(C)=CC(C)C(O)C(C)C=CC(CC1OC(=O)C(C)C(OC(C)=O)C1C)OC(C)=O (stereo not drawn) [discodermolide-3,7-diacetate] | greater cytotoxicity | 
C=CC=CC(C)C(OC(N)=O)C(C)C(O)C(C)CC(C)=CC(C)C(O)C(C)C=CC(CC1OC(=O)C(C)C(O)C1C)OC(C)=O (stereo not drawn) [discodermolide-7-acetate] | greater cytotoxicity | 
C=CC=CC(C)C(OC(N)=O)C(C)C(OC(C)=O)C(C)CC(C)=CC(C)C(O)C(C)C=CC(CC1OC(=O)C(C)C(OC(C)=O)C1C)OC(C)=O (stereo not drawn) [discodermolide-3,7,17-triacetate] | dramatic reduction in the activity | 
C=CC=CC(C)C(OC(N)=O)C(C)C(O)C(C)CC(C)=CC(C)C(O)C(C)C=CC(O)CC1OC(=O)C(C)C(OC(C)=O)C1C (stereo not drawn) [discodermolide-3-acetate] | greater cytotoxicity | 
C=CC=CC(C)C(OC(N)=O)C(C)C(OC(C)=O)C(C)CC(C)=CC(C)C(O)C(C)C=CC(O)CC1OC(=O)C(C)C(OC(C)=O)C1C (stereo not drawn) [discodermolide-3,17-diacetate] | dramatic reduction in the activity | 
C=CC=CC(C)C(OC(N)=O)C(C)C(O)C(C)CC(C)=CC(C)C(OC(C)=O)C(C)C=CC(CC1OC(=O)C(C)C(OC(C)=O)C1C)OC(C)=O (stereo not drawn) [discodermolide-3,7,11-triacetate] | reduced cytotoxicity | 
C=CC=CC(C)C(OC(N)=O)C(C)C(O)C(C)CC(C)=CC(C)C(OC(C)=O)C(C)C=CC(O)CC1OC(=O)C(C)C(OC(C)=O)C1C (stereo not drawn) [discodermolide-3,11-diacetate] | reduced cytotoxicity | 
CCCCC(C)C(OC(N)=O)C(C)C(OC(C)=O)C(C)CC(C)=CC(C)C(OC(C)=O)C(C)CCCCC1OC(=O)C(C)C(OC(C)=O)C1C (stereo not drawn) [7-deoxy-8,21,23-hexahydrodiscodermolide-3,11,17-triacetate] |  | IC50 P388 cells [2]: >5 µg/mL; IC50 ([2]; value in parentheses): > 7.5 µM; Cell cycle effects (A549 human lung cells; 10 nM): No cell cycle effects were noted; Cell cycle effects (100 nM) (A549 human lung cells; 100 nM, 24 hr, A549): No cell cycle effects were noted; Cell cycle effects (A549 human lung cells; 1000 nM): No cell cycle effects were noted; Microtubule bundling observation ([3]; 10 nM through 1000 nM): no bundling seen; Microtubule bundling in A549 cells ([3]; subjective rating versus discodermolide, Table 12): −
C=CC=CC(C)C(OC(N)=O)C(C)C(OC(C)=O)C(C)CC(C)=CC(C)C(OC(C)=O)C(C)C=CC(CC1OC(=O)C(C)C(OC(C)=O)C1C)OC(C)=O (stereo not drawn) [discodermolide-3,7,11,17-tetraacetate] | dramatic reduction in the activity | 
